From patent US7915050B2, “Regulatory genes for plant differentiation and growth, and use of the same” (National University Corporation Nagoya University, priority 2005, dated 2011)

Target: T1, AtGID1c in the presence of GAI (Arabidopsis thaliana, UniProt Q940G6)
T1 construct: made in house; host or cells: E. coli (stated for AtGID1)
T1 sequence (Q940G6 1-344): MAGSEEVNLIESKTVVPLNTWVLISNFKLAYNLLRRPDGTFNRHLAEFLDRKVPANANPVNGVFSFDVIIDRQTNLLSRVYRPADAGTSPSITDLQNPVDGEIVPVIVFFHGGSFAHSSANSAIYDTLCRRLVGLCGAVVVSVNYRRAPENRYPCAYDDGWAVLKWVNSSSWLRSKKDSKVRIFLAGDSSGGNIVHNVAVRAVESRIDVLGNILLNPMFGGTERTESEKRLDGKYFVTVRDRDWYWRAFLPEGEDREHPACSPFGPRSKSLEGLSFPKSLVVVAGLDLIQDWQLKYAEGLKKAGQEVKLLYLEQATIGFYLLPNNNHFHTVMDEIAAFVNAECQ
T1 sequence (Q9LQT8 1-533 partner): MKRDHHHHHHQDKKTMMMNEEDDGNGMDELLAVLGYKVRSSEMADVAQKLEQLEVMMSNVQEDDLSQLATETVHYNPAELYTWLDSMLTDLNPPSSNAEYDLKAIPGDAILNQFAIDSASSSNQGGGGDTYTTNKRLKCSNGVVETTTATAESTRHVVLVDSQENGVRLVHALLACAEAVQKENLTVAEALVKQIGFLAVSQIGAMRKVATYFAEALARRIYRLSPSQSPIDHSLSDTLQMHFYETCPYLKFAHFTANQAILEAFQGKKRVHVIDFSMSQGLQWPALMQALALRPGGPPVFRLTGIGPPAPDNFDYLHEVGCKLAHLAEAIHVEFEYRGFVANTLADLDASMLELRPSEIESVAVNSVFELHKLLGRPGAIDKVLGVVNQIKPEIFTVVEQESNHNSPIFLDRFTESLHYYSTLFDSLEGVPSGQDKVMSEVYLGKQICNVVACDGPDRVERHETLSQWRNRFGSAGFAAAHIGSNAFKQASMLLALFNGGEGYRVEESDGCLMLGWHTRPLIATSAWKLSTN
Assay: Scatchard analysis of AtGID1c-GA binding in the presence of GAI
Procedure: Panel A) depicts AtGID1-AtDELLA interaction in the presence of GA in two types of yeast hybrid (Y2H) assays. Each AtGID1 was used as a bait while AtDELLA was a prey. GA4 (10^−5 M) was added to the medium. The bars indicates β-galactosidase activity when o-nitrophenol-β-D-galactopyranoside was used as a substrate (Assay B). The growth of each transformant in the defined medium for 2 days (Assay A) is shown beneath of each bar graph. The experiment was carried out in quadruplicate. The SD value shown in the figure was determined from three measurements. Panel B) depicts the dose response in AtGID1-RGA interaction in Assay B of Y2H. GA4 (10^−5 to 10^−9 M) was added to the medium. The experiment was conducted in […]. The SD value shown in the figure was determined from three measurements. Panel C) depicts the results of an evaluation of the in vitro GA-binding potency of AtGID1 using AtDELLA. […] GAI (G) or RGA (R) was added, and then the GA-binding activity in each reaction mixture was measured according to the standard method. […] The SD value was determined from three measurements. […]
Next, whether AtDELLAs exert some kind of influence on the GA-binding activity of AtGID1s was examined in vitro. After labeled 16,17-dihydro-GA4 and AtGID1s were combined, AtDELLAs were added to the solutions, and the GA-binding activity was measured. […]

CC1C[C@]23C[C@H]1CCC2[C@]12CC[C@H](O)[C@](C)(C(=O)O1)[C@H]2[C@@H]3C(=O)O (stereo partly shown) [H2-GA4, 16,17-dihydro-GA4]
Kd: 46 nM
